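Protocol summary: plate cells (96-well), add compound at 5 concentrations, incubate 48 h, interpolate endpoints linearly. GI50 = concentration required for 50% inhibition of growth.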 The source made the active and inactive calls. Cut-off read from the data, not from the text of the source: active = GI50 up to about 1.1 µM and inactive = higher. Where a SMILES comes first, the peptide text is derived from it. [ ]: non-standard residue; d: D form. 2Nal = N[CH](Cc1ccc2ccccc2c1)C(=O)O
How the values were obtained:
Assay in all cases: NCI anticancer screen, dose series, 48 h
[1] = test system: SNB-75
[2] = test system: A498
[3] = test system: HOP-92
[4] = test system: PC-3
[5] = test system: NCI-H226
[6] = test system: Malme-3M
[7] = test system: SR
[8] = test system: SW-620
[9] = test system: OVCAR-8
[10] = test system: LOX IMVI
[11] = test system: T47D
[12] = test system: U-251
[13] = test system: OVCAR-5
[14] = test system: CCRF-CEM
[15] = test system: SK-MEL-5
[16] = test system: UACC-62
[17] = test system: SK-OV-3
[18] = test system: K562
[19] = test system: COLO 205
[20] = test system: MDA-N

| Structure (SMILES) | GI50 [1] | GI50 [2] | GI50 [3] | GI50 [4] | GI50 [5] | GI50 [6] | GI50 [7] | GI50 [8] | GI50 [9] | GI50 [10] | GI50 [11] | GI50 [12] | GI50 [13] | GI50 [14] | GI50 [15] | GI50 [16] | GI50 [17] | GI50 [18] | GI50 [19] | GI50 [20] |
| --- | --- | --- | --- | --- | --- | --- | --- | --- | --- | --- | --- | --- | --- | --- | --- | --- | --- | --- | --- | --- |
| CCOc1ccc(NC(=O)/C(=N\N)C(C(=O)OC)c2nc3ccc(Cl)cc3nc2O)cc1 (centres undefined) | > 100 µM (inactive) | > 100 µM (inactive) | > 100 µM (inactive) | > 100 µM (inactive) | > 100 µM (inactive) | > 100 µM (inactive) | 21.7 µM (inactive) | > 100 µM (inactive) | > 100 µM (inactive) | > 100 µM (inactive) | > 100 µM (inactive) | > 100 µM (inactive) | > 100 µM (inactive) | > 100 µM (inactive) | > 100 µM (inactive) | > 100 µM (inactive) | > 100 µM (inactive) | – | – | – |
| CC1CC(=O)C(C(O)CC2CC(=O)N(c3ccccc3)C(=O)C2)C(C)C1 (centres undefined) | > 100 µM (inactive) | > 100 µM (inactive) | > 100 µM (inactive) | – | > 100 µM (inactive) | > 100 µM (inactive) | > 100 µM (inactive) | > 100 µM (inactive) | > 100 µM (inactive) | > 100 µM (inactive) | – | > 100 µM (inactive) | > 100 µM (inactive) | > 100 µM (inactive) | – | > 100 µM (inactive) | > 100 µM (inactive) | > 100 µM (inactive) | > 100 µM (inactive) | – |
| Cc1sc2nc(-c3cc([N+](=O)[O-])c(Cl)cc3Cl)c(/C=N/NC(=N)N)n2c1C | – | 19.5 µM (inactive) | 7.13 µM (inactive) | 5.69 µM (inactive) | 26.8 µM (inactive) | 13.8 µM (inactive) | 0.411 µM (active) | 13.6 µM (inactive) | 5.7 µM (inactive) | 2.29 µM (inactive) | – | 4.02 µM (inactive) | 32.2 µM (inactive) | 4.31 µM (inactive) | 6.3 µM (inactive) | 14.7 µM (inactive) | – | 3.06 µM (inactive) | – | – |
| Cc1ccc(S(=O)(=O)NC(=O)Nc2ccc(S(N)(=O)=O)cc2S(N)(=O)=O)cc1 | > 100 µM (inactive) | – | > 100 µM (inactive) | > 100 µM (inactive) | > 100 µM (inactive) | > 100 µM (inactive) | – | > 100 µM (inactive) | > 100 µM (inactive) | > 100 µM (inactive) | – | > 100 µM (inactive) | > 100 µM (inactive) | > 100 µM (inactive) | > 100 µM (inactive) | > 100 µM (inactive) | > 100 µM (inactive) | > 100 µM (inactive) | > 100 µM (inactive) | > 100 µM (inactive) |
| Cn1cc(NC(=O)c2cc(NC(=O)Nc3cc(C(=O)Nc4cc(C(=O)NCCC(=N)N)n(C)c4)n(C)c3)cn2C)cc1C(=O)NCCC(=N)N | 40.5 µM (inactive) | 25.1 µM (inactive) | 42.2 µM (inactive) | – | – | 24.9 µM (inactive) | 44.2 µM (inactive) | > 100 µM (inactive) | 22.8 µM (inactive) | 25.4 µM (inactive) | – | 26.6 µM (inactive) | > 100 µM (inactive) | 22 µM (inactive) | 17.4 µM (inactive) | 16.9 µM (inactive) | > 100 µM (inactive) | 51.8 µM (inactive) | 33 µM (inactive) | – |
| COc1cccc2c1C(=O)c1c(O)c3c(c(O)c1C2=O)C[C@H](O)C[C@@H]3OC1CC(N)C(O)C(C)O1 (some centres undefined) | 1.87 µM (inactive) | < 0.01 µM (active) | 2 µM (inactive) | 2.09 µM (inactive) | 1.08 µM (active) | 0.843 µM (active) | < 0.01 µM (active) | – | 1.05 µM (active) | 0.229 µM (active) | 1.21 µM (inactive) | – | 1.97 µM (inactive) | 0.259 µM (active) | 0.522 µM (active) | 0.255 µM (active) | 2.13 µM (inactive) | 1.79 µM (inactive) | 0.508 µM (active) | – |
| CC(NC(=O)C(N)Cc1ccccc1)C(=O)NC(Cc1ccc(O)cc1)C(=O)NC(Cc1c[nH]c2ccccc12)C(=O)NC(CCCCN)C(=O)NC(C(=O)NC(C)C(=O)NC(Cc1ccc2ccccc2c1)C(N)=O)C(C)C (centres undefined) (H-FAYWKVA[2Nal]-NH2; configuration not given here) | 28.1 µM (inactive) | > 12.5 µM (inactive) | – | > 12.5 µM (inactive) | > 12.5 µM (inactive) | > 12.5 µM (inactive) | – | > 12.5 µM (inactive) | > 12.5 µM (inactive) | > 12.5 µM (inactive) | > 12.5 µM (inactive) | > 12.5 µM (inactive) | > 12.5 µM (inactive) | > 12.5 µM (inactive) | > 12.5 µM (inactive) | > 12.5 µM (inactive) | > 12.5 µM (inactive) | > 12.5 µM (inactive) | > 12.5 µM (inactive) | – |
| CCOC(OC1=C(C#N)CCCC1)C(CC)[Se]c1ccccc1 (centres undefined) | 29.3 µM (inactive) | 13.6 µM (inactive) | 25 µM (inactive) | – | 19.4 µM (inactive) | 31 µM (inactive) | 7.8 µM (inactive) | – | 16.8 µM (inactive) | 9.25 µM (inactive) | – | 13 µM (inactive) | 32.4 µM (inactive) | 15.7 µM (inactive) | 16.4 µM (inactive) | 13.7 µM (inactive) | > 100 µM (inactive) | 38.9 µM (inactive) | 17.5 µM (inactive) | – |
| O=c1[nH]n(Cc2ccccc2Cl)c2ccc([N+](=O)[O-])cc12 | 47.2 µM (inactive) | 22.3 µM (inactive) | 18.5 µM (inactive) | – | 86.9 µM (inactive) | 47.3 µM (inactive) | 29.2 µM (inactive) | 53.7 µM (inactive) | 42.3 µM (inactive) | > 100 µM (inactive) | – | 75.9 µM (inactive) | > 100 µM (inactive) | 45.2 µM (inactive) | 12.6 µM (inactive) | 43.4 µM (inactive) | – | 29 µM (inactive) | > 100 µM (inactive) | 47 µM (inactive) |
| CCOC(=O)C(=O)CC1=Nc2ccccc2SC(c2cccc(C)c2)C1 (centres undefined) | 18.9 µM (inactive) | 18.1 µM (inactive) | 16 µM (inactive) | – | 16.9 µM (inactive) | 17.3 µM (inactive) | 22.2 µM (inactive) | 25.6 µM (inactive) | 12.6 µM (inactive) | – | – | 17.1 µM (inactive) | 16.8 µM (inactive) | 20.6 µM (inactive) | 18.2 µM (inactive) | 16.9 µM (inactive) | > 10 µM (inactive) | 19.7 µM (inactive) | > 10 µM (inactive) | – |
| O=C(CSc1nc(-c2ccccc2)c(-c2ccccc2)[nH]1)NNC(=S)Nc1ccccc1 | > 100 µM (inactive) | > 100 µM (inactive) | 36.2 µM (inactive) | – | > 100 µM (inactive) | > 100 µM (inactive) | 57.5 µM (inactive) | > 100 µM (inactive) | 46.7 µM (inactive) | 71 µM (inactive) | – | > 100 µM (inactive) | > 100 µM (inactive) | 39.4 µM (inactive) | 46.1 µM (inactive) | 0.277 µM (active) | > 100 µM (inactive) | – | 61.7 µM (inactive) | – |
| CCc1cccc(C(C)C)c1NC(=O)C(=O)C1C(=O)NC(=O)NC1=O | 69.5 µM (inactive) | > 100 µM (inactive) | > 100 µM (inactive) | – | > 100 µM (inactive) | > 100 µM (inactive) | > 100 µM (inactive) | > 100 µM (inactive) | > 100 µM (inactive) | > 100 µM (inactive) | – | > 100 µM (inactive) | > 100 µM (inactive) | > 100 µM (inactive) | > 100 µM (inactive) | > 100 µM (inactive) | > 100 µM (inactive) | > 100 µM (inactive) | > 100 µM (inactive) | – |
| Nc1nc2c(N)cc(C(F)(F)F)cc2nc1-c1ccccc1 | 27.2 µM (inactive) | > 100 µM (inactive) | > 100 µM (inactive) | – | > 100 µM (inactive) | > 100 µM (inactive) | > 100 µM (inactive) | > 100 µM (inactive) | > 100 µM (inactive) | > 100 µM (inactive) | – | > 100 µM (inactive) | > 100 µM (inactive) | > 100 µM (inactive) | > 100 µM (inactive) | > 100 µM (inactive) | > 100 µM (inactive) | > 100 µM (inactive) | > 100 µM (inactive) | – |
| CC[C@H]1C=CCC[C@@]2(C[C@@H]3CC[C@H]4[C@@H](C(=O)OCCCCCCCCCCCCCCCC(=O)N(CCCN)C[C@@H](O)CCN)[C@@]5(CCC[C@@H](C)O5)NC(=[N+]34)N2)O1 | – | 3.01 µM (inactive) | 1.87 µM (inactive) | 1.62 µM (inactive) | 1.6 µM (inactive) | 1.67 µM (inactive) | 1.85 µM (inactive) | 2.12 µM (inactive) | 2.36 µM (inactive) | 1.91 µM (inactive) | – | 1.64 µM (inactive) | 1.63 µM (inactive) | – | 1.47 µM (inactive) | 1.78 µM (inactive) | 1.8 µM (inactive) | 1.48 µM (inactive) | 1.83 µM (inactive) | 1.66 µM (inactive) |
| O=C1N(CN2CCOCC2)CN(CN2CCOCC2)C(=O)N1Cc1ccc(-c2ccc(CN3C(=O)N(CN4CCOCC4)CN(CN4CCOCC4)C3=O)cc2)cc1 | 9.55 µM (inactive) | 15.3 µM (inactive) | 9.46 µM (inactive) | 20.8 µM (inactive) | > 46.2 µM (inactive) | 13.2 µM (inactive) | 2.08 µM (inactive) | 8.38 µM (inactive) | 20.5 µM (inactive) | 10 µM (inactive) | 24 µM (inactive) | 16.1 µM (inactive) | 20.2 µM (inactive) | – | > 19.7 µM (inactive) | 9.75 µM (inactive) | 32.9 µM (inactive) | 3.75 µM (inactive) | > 21 µM (inactive) | – |

— ChEMBL document CHEMBL1201862, “PubChem BioAssay data set” (2004)
